US8197860B2, “Method for enhancing nutrient absorption with astragalosides” (Nuliv Holding Inc., priority 2005, dated 2012)

Tests used:
Type in all cases: cell-based, human
Caco-2 cell monolayer [1] = assay: Arginine absorption assay (transport across Caco-2 cell monolayer); parameters: key to * (regulatory effect on arginine transport): ↑: the arrows that point up represent the enhancing effect on the arginine transport; conditions: for Regulatory effects on the arginine transport across the Caco2 cell monolayer: Table 3 summary; for Transport rate (arginine): 10 mM L-arginine apical; for Arginine transport rate: concentration from 0.01 μM to 1 μM
Protocol: (§1) To evaluate the effect of the isolated astragaloside compound on the uptake of nutrient substances across the intestinal lumen, Caco-2 cells were grown on permeable filter as an experimental model. Caco2 cells originate from human colonic adenocarcinoma and spontaneously differentiate into an enterocyte-like phenotype after two weeks. The Caco-2 cell line, derived from a human colorectal carcinoma, has been used as an in vitro model system for studying drug absorption in gastrointestinal tract. These cells form monolayers with well-developed tight-junctions, and have been evaluated in details as an in vitro model to study both transcellular transport of nutrients and drugs in intestinal lumen.
(§2) Caco-2 cells were obtained from the ATCC (American Type Culture Collection). The cells were maintained in Dulbecco's modified Eagle medium (DMEM) containing 4.5 g/L glucose and 25 mM Hepes, supplemented with 10% fetal calf serum, 100 U/mL penicillin G and […]. The medium was changed every second day. The cells were routinely checked for Mycoplasma in monthly intervals. Caco-2 cells were cultured on semi-permeable membranes to differentiate into a highly functionalized epithelial barrier with remarkable morphological and biochemical similarity to the small intestinal columnar epithelium. The Caco-2 cell monolayers could therefore be used to study the membrane transport properties of many compounds. To trypsinize the cells, the culture dish was washed once with phosphate-buffered saline (PBS) followed by adding trypsine-EDTA for 10 minutes. The trypsinized cells were separated and filtered into single cells using a 35-μm strainer cap (Falcon 2235) before being seeded for further experiments.
(§3) In measuring transport of arginine across the Caco-2 cell monolayer, both sides of the transwells were washed with arginine incubation buffer consisting of: 137 mM NaCl, 10 mM Hepes, 0.3 mM NaH2PO4, 0.3 mM K2HPO4, 5.4 mM KCl, 2.8 mM CaCl2, 1 mM MgSO4, 10 mM glucose, adjusted to pH 7.4. Then, the cell layer was preincubated in the incubation buffer at 37° C. for 1 h. The volume of incubation buffer was 0.2 mL and 0.9 mL in the apical and basolateral chambers, respectively. The cells were replaced with fresh incubation medium in both chambers prior to the transport experiment. The transport experiment was initiated by replacing the incubation solution on the apical side with solution containing 10 mM of L-arginine in which 0.125 μCi/mL of L-[^3H]-arginine was included. At designated time intervals, 10 μL-solution samples were removed from the basolateral side and radioactivity of each sample was counted using a microplate liquid scintillation counter (TopCount, Packard NXT). During the experiment, when a 10 μL-solution sample was removed from the basolateral side every time, 10 μL buffer was supplemented to keep the volume constant. The uptake of [^3H]-mannitol was used to correct for nonspecific transport of molecules across the monolayer membrane. Results were expressed as the nanomoles of arginine transport across the Caco-2 cell monolayers with respect to time in minutes (nmol/min).

Caco-2 cell monolayer [2] = assay: Tryptophan absorption assay (transport across Caco-2 cell monolayer); parameters: key to * (regulatory effect on tryptophan transport): ↑: the arrows that point up represent the enhancing effect on the tryptophan transport; conditions: for Regulatory effects on the tryptophan transport across the Caco2 cell monolayer: Table 4 summary; for Tryptophan transport rate: concentration from 0.01 μM to 1 mM
Protocol: as §1, §2, §3
The experimental procedures similar to those in Example 2 were used for measuring the uptake of tryptophan molecules across the Caco-2 membrane, except using a tryptophan incubation buffer consisting of 137 mM choline chloride, 10 mM Hepes, 0.6 mM KH2PO4, 5.4 mM KCl, 2.8 mM CaCl2, 1 mM MgSO4, and 10 mM glucose, and having its pH adjusted to 7.4. Results were expressed as the nanomoles of tryptophan transport across the Caco-2 cell monolayers with respect to time in minutes (nmol/min).

Caco2 cells [3] = assay: Glucose uptake assay; parameters: key to * (regulatory effect on glucose uptake): ↑: the arrows that point up represent the enhancing effect on the glucose uptake; conditions: for Regulatory effects on the glucose uptake of the Caco2 cells: Table 2 summary; for Uptake rate (glucose): 48 hours, 25 mM glucose
Protocol: as §1, §2
(§4) Caco-2 cells (5×10^4) were seeded in a 48-well plate and maintained in culture medium (DMEM with 10% FBS, 1% nonessential amino acids, L-glutamine, penicillin G (100 U/mL), streptomycin (10 μg/mL), and amphotericin B (2.5 μg/mL) in a 37° C. incubator for 10 days for the cells to differentiate. The culture medium was changed once every two days. The cells were then washed with PBS before replenishing with the culture medium containing 5% FBS and various astragalosides at the indicated concentrations (0.01, 0.1 and 1 μM) for 48 hours. The Caco2 cells were washed out of remaining glucose with PBS and replaced in the glucose buffer (80 mM NaCl, 100 mM mannitol, 20 mM Tris-HCl, pH 7.4, 3 mM K2HPO4, 1 mM CaCl2, 1 mg/mL BSA) for 1 hour. Glucose uptake was initiated by replacing the glucose buffer with 0.2 ml of glucose buffer containing 2 μCi/mL of ^14C-glucose and unlabeled cold glucose to give a final glucose concentration of 25 mM. Glucose uptake was stopped by removing the glucose buffer and washing with PBS at designated time intervals. The cells were lysed in 0.2 mL of 0.2 N NaOH, and 20 μL of the cell lysate were transferred to the filter-bottomed UniFilter plates (Perkin-Elmer, Wellesley, Mass., USA) and dried in a vacuum oven at 37° C. The bottom of the UniFilter plate was sealed and 25 μL of the counting solution were added into each well. Adhesive plate sealers were used in place of the lids and radioactivity of each sample was counted using the microplate liquid scintillation counter (TopCount, Packard NXT, Packard BioScience Company, Meriden, Conn., USA). The amount of glucose accumulated in the cells was calculated and normalized to protein concentration, and uptake rate was expressed as nanomoles of glucose per minutes per milligram of cell protein (nmol/min/mg). Protein concentration was determined by a standard Bicinchoninic acid (BCA) protein assay. Nonspecific glucose uptake was measured by adding 2 μCi of L-[^14C]-glucose and subtracting from each determination to obtain specific glucose uptake.

Caco2 cells [4] = assay: Folate uptake assay; parameters: key to * (regulatory effect on folate uptake): ↑: the arrows that point up represent the enhancing effect on folate uptake; conditions: compound 0.1 μM; for Uptake rate (folate): 2 days, 5 μM folate, pH 6.0
Protocol: as §1, §2, §4
The Caco2 cells were subjected to folate uptake test in a manner similar to that described in the glucose uptake assay in Example 1 above. […]

Row | Compound | Regulatory effects on the arginine transport across the Caco2 cell monolayer (Caco-2 cell monolayer [1]) | * (regulatory effect on arginine transport) (Caco-2 cell monolayer [1]; compound 0.01 μM) | Percentage (arginine transport, control = 100) (Caco-2 cell monolayer [1]; compound 0.01 μM) [%] | Transport rate (arginine) (Caco-2 cell monolayer [1]; compound 0.01 μM) [nmol/min] | * (regulatory effect on arginine transport) (Caco-2 cell monolayer [1]; compound 0.1 μM) | Percentage (arginine transport, control = 100) (Caco-2 cell monolayer [1]; compound 0.1 μM) [%] | Transport rate (arginine) (Caco-2 cell monolayer [1]; compound 0.1 μM) [nmol/min] | * (regulatory effect on arginine transport) (Caco-2 cell monolayer [1]; compound 1 μM) | Percentage (arginine transport, control = 100) (Caco-2 cell monolayer [1]; compound 1 μM) [%] | Transport rate (arginine) (Caco-2 cell monolayer [1]; compound 1 μM) [nmol/min] | Arginine transport rate (Caco-2 cell monolayer [1]) | Regulatory effects on the tryptophan transport across the Caco2 cell monolayer (Caco-2 cell monolayer [2]) | * (regulatory effect on tryptophan transport) (Caco-2 cell monolayer [2]; compound 0.01 μM) | Percentage (tryptophan transport, control = 100) (Caco-2 cell monolayer [2]; compound 0.01 μM) [%] | Transport rate (tryptophan) (Caco-2 cell monolayer [2]; compound 0.01 μM) [nmol/min] | * (regulatory effect on tryptophan transport) (Caco-2 cell monolayer [2]; compound 0.1 μM) | Percentage (tryptophan transport, control = 100) (Caco-2 cell monolayer [2]; compound 0.1 μM) [%] | Transport rate (tryptophan) (Caco-2 cell monolayer [2]; compound 0.1 μM) [nmol/min] | * (regulatory effect on tryptophan transport) (Caco-2 cell monolayer [2]; compound 1 μM) | Percentage (tryptophan transport, control = 100) (Caco-2 cell monolayer [2]; compound 1 μM) [%] | further results
1 | CC(C)(O)C1CC[C@](C)(C2[C@@H](O)C[C@@]3(C)C4C[C@H](OC5OC(CO)C(O)C(O)C5O)C5C(C)(C)[C@@H](O)CCC56CC46CC[C@]23C)O1 (stereo partly drawn) [AA, cycloastragenol 6-O-β-D-gluco-pyranose] | had regulatory effects on the arginine transport | ↑ | 199.66 | 21.3347 ± 1.7800 | ↑ | 170.48 | 18.2169 ± 1.8700 | ↑ | 162.06 | 17.3164 ± 1.6150 | increased | had regulatory effects on the tryptophan transport | ↑ | 133.08 | 11.900 ± 0.6231 | ↑ | 156.56 | 14.000 ± 0.6445 | ↑ | 135.32 | Transport rate (tryptophan) (Caco-2 cell monolayer [2]; compound 1 μM): 12.100 ± 0.5197 nmol/min; Tryptophan transport rate (Caco-2 cell monolayer [2]): increased; Regulatory effects on the glucose uptake of the Caco2 cells (Caco2 cells [3]): had regulatory effects on the glucose uptake; * (regulatory effect on glucose uptake) (Caco2 cells [3]; compound 0.01 μM): ↑; Percentage (glucose uptake, control = 100) (Caco2 cells [3]; compound 0.01 μM): 179.69%; Uptake rate (glucose) (Caco2 cells [3]; compound 0.01 μM): 11.450 ± 3.2760 nmol/mg/min; * (regulatory effect on glucose uptake) (Caco2 cells [3]; compound 0.1 μM): ↑; Percentage (glucose uptake, control = 100) (Caco2 cells [3]; compound 0.1 μM): 146.67%; Uptake rate (glucose) (Caco2 cells [3]; compound 0.1 μM): 9.3460 ± 2.3210 nmol/mg/min; * (regulatory effect on glucose uptake) (Caco2 cells [3]; compound 1 μM): ↑; Percentage (glucose uptake, control = 100) (Caco2 cells [3]; compound 1 μM): 145.68%; Uptake rate (glucose) (Caco2 cells [3]; compound 1 μM): 9.2830 ± 2.1150 nmol/mg/min; * (regulatory effect on folate uptake) (Caco2 cells [4]): ↑; Percentage (folate uptake vs own control) (Caco2 cells [4]): 158.52%; Uptake rate (folate) (Caco2 cells [4]): 84.030 ± 4.9410 pmol/mg/min
2 | CC(=O)O[C@@H]1[C@@H](O)[C@H](O[C@H]2CC[C@]34C[C@]35CC[C@]3(C)[C@@H]([C@@]6(C)CC[C@@H](C(C)(C)O)O6)[C@@H](O)C[C@@]3(C)[C@@H]5C[C@H](O[C@@H]3O[C@H](CO)[C@@H](O)[C@H](O)[C@H]3O)[C@H]4C2(C)C)OC[C@H]1O [IsoAS2, isoastragaloside II] | had regulatory effects on the arginine transport | ↑ | 138.11 | 14.7577 ± 0.2837 | ↑ | 132.01 | 14.1059 ± 0.1815 | ↑ | 118.40 | 12.6518 ± 0.3680 | increased | had regulatory effects on the tryptophan transport | ↑ | 145.38 | 13.000 ± 0.5547 | ↑ | 146.05 | 13.060 ± 0.5530 | ↑ | 224.45 | Transport rate (tryptophan) (Caco-2 cell monolayer [2]; compound 1 μM): 20.070 ± 0.1931 nmol/min; Tryptophan transport rate (Caco-2 cell monolayer [2]): increased; Regulatory effects on the glucose uptake of the Caco2 cells (Caco2 cells [3]): had regulatory effects on the glucose uptake; * (regulatory effect on glucose uptake) (Caco2 cells [3]; compound 0.01 μM): ↑; Percentage (glucose uptake, control = 100) (Caco2 cells [3]; compound 0.01 μM): 115.69%; Uptake rate (glucose) (Caco2 cells [3]; compound 0.01 μM): 7.3720 ± 2.5700 nmol/mg/min; * (regulatory effect on glucose uptake) (Caco2 cells [3]; compound 0.1 μM): ↑; Percentage (glucose uptake, control = 100) (Caco2 cells [3]; compound 0.1 μM): 107.05%; Uptake rate (glucose) (Caco2 cells [3]; compound 0.1 μM): 6.8210 ± 1.6630 nmol/mg/min; Percentage (glucose uptake, control = 100) (Caco2 cells [3]; compound 1 μM): 96.55%; Uptake rate (glucose) (Caco2 cells [3]; compound 1 μM): 6.1520 ± 2.4610 nmol/mg/min; * (regulatory effect on folate uptake) (Caco2 cells [4]): ↑; Percentage (folate uptake vs own control) (Caco2 cells [4]): 162.87%; Uptake rate (folate) (Caco2 cells [4]): 86.63 ± 2.82 pmol/mg/min
